This is an account of results in patent publication US9944635B2, “Deuterated pyrazino[2,1-a]isoquinoline compounds and methods of treatment using the same” (Concert Pharmaceuticals, Inc., priority 2011, dated 2018).

Data set [1] is described as follows: Metabolic stability in human liver microsomes (in vitro half-life). It is filed as in vitro ADME. The procedure: Human liver microsomes (20 mg/mL) are obtained from Xenotech, LLC (Lenexa, Kans.). β-nicotinamide adenine dinucleotide phosphate, reduced form (NADPH), magnesium chloride (MgCl2), and dimethyl sulfoxide (DMSO) are purchased from Sigma-Aldrich. 7.5 mM stock solutions of test compounds were prepared in DMSO. The 7.5 mM stock solutions were diluted to 50 μM in acetonitrile (ACN). The 20 mg/mL human liver microsomes were diluted to 0.625 mg/mL in 0.1 M potassium phosphate buffer, pH 7.4, containing 3 mM MgCl2. The diluted microsomes were added to wells of a 96-well deep-well polypropylene plate in triplicate. A 10 μL aliquot of the 50 μM test compound was added to the microsomes and the mixture was pre-warmed for 10 minutes. Reactions were initiated by addition of pre-warmed NADPH solution. The final reaction volume was 0.5 mL and contained 0.5 mg/mL human liver microsomes, 1.0 μM test compound, and 2 mM NADPH in 0.1 M potassium phosphate buffer, pH 7.4, and 3 mM MgCl2. The reaction mixtures were incubated at 37° C., and 50 μL aliquots were removed at 0, 5, 10, 20, and 30 minutes and added to shallow-well 96-well plates which contained 50 μL of ice-cold ACN with internal standard to stop the reactions. The plates were stored at 4° C. for 20 minutes after which 100 μL of water was added to the wells of the plate before centrifugation to pellet precipitated proteins. Supernatants were transferred to another 96-well plate and analyzed for amounts of parent remaining by LC-MS/MS using an Applied Bio-systems API 4000 mass spectrometer. […] Testing was done in triplicate.
For orientation: Liver microsomes are vesicles of endoplasmic reticulum, rich in cytochrome P450 enzymes.

A further data set has as its system schistosoma. The settings on record: enantiomer comparison, Meyer et al. 2009; cited from earlier work.
For data set [2] the following is noted: FDA label for BILTRICIDE; cited from earlier work.
The mark [3] stands for this setting: pH 7.4, Table 1, 0.5 mg/mL HLM, 1.0 μM test compound, 2 mM NADPH, 37° C., read-out: t1/2 Run No. 1.
Setting [4] is: pH 7.4, Table 1, 0.5 mg/mL HLM, 1.0 μM test compound, 2 mM NADPH, 37° C., read-out: t1/2 Run No. 2.
The mark [5] stands for this setting: pH 7.4, Table 1, 0.5 mg/mL HLM, 1.0 μM test compound, 2 mM NADPH, 37° C., read-out: t1/2 Run No. 3.
[6] abbreviates: pH 7.4, Table 1, 0.5 mg/mL HLM, 1.0 μM test compound, 2 mM NADPH, 37° C., read-out: t1/2 Run No. 4.
[7] abbreviates: pH 7.4, Table 1, average of runs 1-4, read-out: t1/2 AVE ± SD.
The mark [8] stands for this setting: pH 7.4, Table 2, 0.5 mg/mL HLM, 1.0 μM test compound, 2 mM NADPH, 37° C., read-out: t1/2 Run No. 5.
[9] abbreviates: pH 7.4, Table 2, 0.5 mg/mL HLM, 1.0 μM test compound, 2 mM NADPH, 37° C., read-out: t1/2 Run No. 6.
[10] abbreviates: pH 7.4, Table 2, 0.5 mg/mL HLM, 1.0 μM test compound, 2 mM NADPH, 37° C., read-out: t1/2 Run No. 7.
The mark [11] stands for this setting: pH 7.4, Table 2, 0.5 mg/mL HLM, 1.0 μM test compound, 2 mM NADPH, 37° C., read-out: t1/2 Run No. 8.
[12] abbreviates: pH 7.4, Table 2, average of runs 5-8, read-out: t1/2 AVE ± SD.
The mark [13] stands for this setting: pH 7.4, Table 3, 0.5 mg/mL HLM, 1.0 μM test compound, 2 mM NADPH, 37° C., read-out: Half-life (t½) Run No. 9.
The mark [14] stands for this setting: pH 7.4, Table 3, 0.5 mg/mL HLM, 1.0 μM test compound, 2 mM NADPH, 37° C., read-out: Half-life (t½) Run No. 11.
Where [15] appears, read: pH 7.4, Table 3, 0.5 mg/mL HLM, 1.0 μM test compound, 2 mM NADPH, 37° C., read-out: Half-life (t½) Run No. 12.
The mark [16] stands for this setting: pH 7.4, Table 3, average of runs 9-12, read-out: Half-life (t½) AVE ± SD.
The mark [17] stands for this setting: pH 7.4, Table 3, 0.5 mg/mL HLM, 1.0 μM test compound, 2 mM NADPH, 37° C., read-out: Half-life (t½) Run No. 10.

Like-named read-outs stand apart in the source and are kept apart here. Bounds are passed on as bounds.

For `[2H]C1([2H])C([2H])([2H])C([2H])([2H])C([2H])(C(=O)N2CC(=O)N3CCc4ccccc4C3C2)C([2H])([2H])C1([2H])[2H]` (centres unmarked) [Compound 102, 2-(Cyclohexane-d11-carbonyl)-2,3,6,7-tetrahydro-1H-pyrazino[2,1-a]isoquinolin-4(11bH)-one], the half-life at 1 μM was found to be 56.4 min in data set [1] (setting [3]); 55.4 min in data set [1] (setting [4]); 44.8 min in data set [1] (setting [5]); 66.2 min in data set [1] (setting [6]); 55.7 ± 8.7 min in data set [1] (setting [7]); 54.8 min in data set [1] (setting [8]). In addition, the half-life at 1 μM is 50.6 min in data set [1] (setting [9]), 44.9 min in data set [1] (setting [10]), 52.4 min in data set [1] (setting [11]) and 50.7 ± 4.2 min in data set [1] (setting [12]).

Regarding `[2H]C1([2H])CC(C(=O)N2CC(=O)N3CCc4ccccc4C3C2)CC([2H])([2H])C1([2H])[2H]` (centres unmarked) [Compound 109, 2-(Cyclohexane-3,3,4,4,5,5,-d6-carbonyl)-2,3,6,7-tetrahydro-1H-pyrazino[2,1-a]isoquinolin-4(11bH)-one], the half-life at 1 μM in data set [1] (setting [8]) was 55.7 min; in data set [1] (setting [9]) it was 53.5 min; in data set [1] (setting [10]), 46.4 min; in data set [1] (setting [11]) it was 51.2 min; in data set [1] (setting [12]) it was 52.2 ± 4.6 min.

On to `O=C(C1CCCCC1)N1CC(=O)N2CCc3ccccc3[C@@H]2C1` [(R) Praziquantel], for which the schistosomicidal activity result with schistosoma is reported as “has schistosomicidal activity”.

`[2H]C1([2H])C(C(=O)N2CC(=O)N3CCc4ccccc4[C@@H]3C2)C([2H])([2H])C([2H])([2H])C([2H])([2H])C1([2H])[2H]` [103(a), (R)-2-(2,2,3,3,4,4,5,5,6,6-d10-Cyclohexanecarbonyl)-2,3,6,7-tetrahydro-1H-pyrazino[2,1-a]isoquinolin-4(11bH)-one]: the half-life at 1 μM in data set [1] (setting [13]) came to 52.7 min; in data set [1] (setting [14]) it was 50 min; in data set [1] (setting [15]), 55.5 min; in data set [1] (setting [16]), 50 ± 5.9 min.

For `[2H]C1([2H])CCC(C(=O)N2CC(=O)N3CCc4ccccc4C3C2)CC1` (centres unmarked) [Compound 101, 2-(Cyclohexane-4,4-d2-carbonyl)-2,3,6,7-tetrahydro-1H-pyrazino[2,1-a]isoquinolin-4(11bH)-one], the half-life at 1 μM in data set [1] (setting [3]) worked out at 47.4 min; in data set [1] (setting [4]), 43.6 min; in data set [1] (setting [5]), 43.1 min; in data set [1] (setting [6]), 52.7 min; in data set [1] (setting [7]), 46.7 ± 4.4 min; in data set [1] (setting [8]), 56.7 min. The half-life at 1 μM in data set [1] (setting [9]) turned out to be 53.9 min; in data set [1] (setting [11]), 60.1 min; in data set [1] (setting [12]), 52.2 ± 9.7 min.

With `O=C(C1CCCCC1)N1CC(=O)N2CCc3ccccc3C2C1` (centres unmarked) [Praziquantel, 2-(cyclohexylcarbonyl)-1,2,3,6,7,11b-hexahydro-4H-pyrazino[2,1-a]isoquinolin-4-one, reference compound], the half-life at 1 μM was found to be 44.7 min in data set [1] (setting [6]); 38.9 ± 3.9 min in data set [1] (setting [7]); 41.2 min in data set [1] (setting [8]); 43.8 min in data set [1] (setting [9]); 30.6 min in data set [1] (setting [10]); 36.9 min in data set [1] (setting [11]). The half-life at 1 μM in data set [1] (setting [13]) was found to be 29.5 min; in data set [1] (setting [17]), 31.5 min; in data set [1] (setting [14]), 35.1 min; in data set [1] (setting [15]), 30.5 min; in data set [1] (setting [16]), 31.7 ± 2.5 min. The “portion of a dose excreted in the kidneys” value in data set [2] was “Approximately 80%”. Also, in data set [2], the “portion of the renally excreted dose in the form of metabolites” value is listed as above 99%.

For the compound `[2H]C1([2H])C([2H])([2H])C([2H])([2H])C([2H])(C(=O)N2CC(=O)N3CCc4ccccc4[C@@H]3C2)C([2H])([2H])C1([2H])[2H]` [102(a), (R)-2-(Cyclohexane-d11-carbonyl)-2,3,6,7-tetrahydro-1H-pyrazino[2,1-a]isoquinolin-4(11bH)-one], the half-life at 1 μM was found to be 57.4 min in data set [1] (setting [13]); 53.6 min in data set [1] (setting [17]); 50.1 min in data set [1] (setting [14]); 46 min in data set [1] (setting [15]); 51.8 ± 4.9 min in data set [1] (setting [16]).

Turning to `[2H]C1([2H])CC(C(=O)N2CC(=O)N3CCc4ccccc4[C@@H]3C2)CC([2H])([2H])C1([2H])[2H]` [109(a), (R)-2-(3,3,4,4,5,5-d6-Cyclohexanecarbonyl)-2,3,6,7-tetrahydro-1H-pyrazino[2,1-a]isoquinolin-4(11bH)-one], the half-life at 1 μM was determined as 39.5 min in data set [1] (setting [13]); 38.7 min in data set [1] (setting [17]); 43.2 min in data set [1] (setting [14]); 55.4 min in data set [1] (setting [15]); 44.2 ± 7.7 min in data set [1] (setting [16]).

`[2H]C1([2H])CCC(C(=O)N2CC(=O)N3CCc4ccccc4[C@@H]3C2)CC1` [101(a), (R)-2-(4,4-d2-Cyclohexanecarbonyl)-2,3,6,7-tetrahydro-1H-pyrazino[2,1-a]isoquinolin-4(11bH)-one]: the half-life at 1 μM in data set [1] (setting [13]) was 48.9 min; in data set [1] (setting [17]), 46.7 min; in data set [1] (setting [14]) it was 56.3 min; in data set [1] (setting [15]), 45.8 min; in data set [1] (setting [16]), 49.4 ± 4.8 min.

For `[2H]C1([2H])C(C(=O)N2CC(=O)N3CCc4ccccc4C3C2)C([2H])([2H])C([2H])([2H])C([2H])([2H])C1([2H])[2H]` (centres unmarked) [Compound 103, 2-(Cyclohexane-2,2,3,3,4,4,5,5,6,6-d10-carbonyl)-2,3,6,7-tetrahydro-1H-pyrazino[2,1-a]isoquinolin-4(11bH)-one], the half-life at 1 μM in data set [1] (setting [8]) came out at 65.1 min; in data set [1] (setting [9]), 51.6 min; in data set [1] (setting [10]), 60.6 min; in data set [1] (setting [11]) it was 69.3 min; in data set [1] (setting [12]), 61.7 ± 7.6 min.
